# Experimental data published in US20170252469A9, “Method for predicting autism spectrum disorders by cannabinoid and cannabinoid receptor expression” (The United of America as represented by the Secretary of …, priority 2011, published 2017).
# “Also recorded” adds a separate entry of the source.
# Experiments:
# mice = conditions: administration of anandamide or high doses of acetaminophen; Umathe et al. 2009; cited from earlier work
# BTBR mice [1] = experiment: three-chamber social approach test in BTBR mice; assay type: in vivo, mouse
# Source text: (§1) BTBR T+tf/J, 129S1/SvImJ and C57BL/6 mouse colony founders were originally obtained from the Jackson Laboratory (Bar Harbor, Me., USA). These strains were bred in the animal facilities of the University of Texas Health Science Center at San Antonio through 2 generations. After weaning at 23-25 days of age, male littermates were housed in groups of 4-5 per cage until behavioral testing at 3-4 months of age. Mice had ad libitum access to food (Teklad™ rodent diet, Harlan, Indianapolis, Ind., USA) and water in ventilated clear plastic cages lined with chipped wood bedding.
# (§2) The cannabinoid agonist WIN55,212-2 (Ascent Scientific, Princeton, N.J., USA) was dissolved initially in dimethyl-sulfoxide (DMSO Sigma) and was diluted with saline (1:10) to administer 0.1 mg/kg i.p. in 10% DMSO to mice. […] Injections were given 30 minutes prior to introduction to the testing arena for conditioning, and 50 min prior to behavior testing.
# The three-chamber sociability testing procedure for mice is described in detail in Yang et al. Curr. Protoc. Neurosci., Chapter 8: Unit 8. 26 (2011), our study was conducted in a manner consistent with that protocol. Mice were introduced into the center chamber of an acrylic three-chamber sociability arena, measuring 30×22×61 cm with a light tan bottom, black side walls and two transparent interior walls with slat door openings of 10 cm^2 […] dividing the arena into 3 chambers, for 20 min prior to behavioral testing. As described in Gould et al. J. Neurochem., 116: 291-303 (2011), pre-conditioning was performed under low red light (16 lux) at first for 10 min with the mouse confined in the center chamber, then with the doors opened so the subject could explore the entire arena for 10 min longer. Just prior to testing, subjects were briefly confined in the center chamber while an empty wire cup cage was placed at one end of the arena, and a stranger mouse of the same strain was placed under an identical cup cage at the opposite end. Stranger mice were neither litter- nor cage-mates of the subjects and were housed in a separate ventilated cage rack. Stranger mice were pre-conditioned under cup cages in 3 sessions of 30 min each in the day(s) prior to testing, separated by 1 hour reprises in their home cages. Cup cages were topped with weighted jars (9 cm high×7 cm diameter) to prevent mice from climbing on top of them. Digital video cameras (Hewlett-Packard Photosmart™ R742, Palo Alto, Calif., USA) positioned on top of tripods overseeing the arenas were turned on, the doors were removed and social approach behavior was recorded for 10 min under low red light.
# BTBR mice [2] = experiment: three-chamber social novelty test in BTBR mice; assay type: in vivo, mouse; conditions: WIN 55,212-2 0.1 mg/kg i.p.; for time in the chamber with the novel stranger / chamber entries: acetaminophen 100 mg/kg; for time in the chamber with the novel stranger: vs controls; for chamber entries: social novelty test, BTBR
# Procedure: as §2
# (§3) The social approach test ended with confinement of the subject into the center chamber and closing of the slat doors. A new stranger mouse was then placed under the empty cup cage, the doors were opened, and behavior was recorded for another 10 min under low red light to assess preference for social novelty. At the end of the test, stranger mice were returned to their home cages for use in subsequent tests, and subject mice were removed from the arena and placed in a marble burying test. The number of boli in the center of the arena was counted prior to cleaning the arena with a solution of 70% EtOH and paper towels prior to conditioning and testing the next animal. Digital videos were analyzed for box entries, time in box and social sniffing time by observers blind to mouse strain or drug treatments.
# BTBR mice [3] = experiment: marble burying test in BTBR mice, acute treatment; assay type: in vivo, mouse; conditions: 30 min, FIG. 2d
# Procedure: as §2
# 129S1/SvImJ mice [4] = experiment: three-chamber social approach test in 129S1/SvImJ mice; assay type: in vivo, mouse; conditions: 129S
# Source text: as §1, §2
# The three-chamber sociability testing procedure for mice is described in detail in Yang et al. Curr. Protoc. Neurosci., Chapter 8: Unit 8. 26 (2011), our study was conducted in a manner consistent with that protocol. Mice were introduced into the center chamber of an acrylic three-chamber sociability arena, measuring 30×22×61 cm with a light tan bottom, black side walls and two transparent interior walls with slat door openings of 10 cm^2 […] dividing the arena into 3 chambers, for 20 min prior to behavioral testing. As described in Gould et al. J. Neurochem., 116: 291-303 (2011), pre-conditioning was performed under low red light (16 lux) at first for 10 min with the mouse confined in the center chamber, then with the doors opened so the subject could explore the entire arena for 10 min longer. […] Digital video cameras (Hewlett-Packard Photosmart™ R742, Palo Alto, Calif., USA) positioned on top of tripods overseeing the arenas were turned on, the doors were removed and social approach behavior was recorded for 10 min under low red light.
# 129S1/SvImJ mice [5] = experiment: three-chamber social novelty test in 129S1/SvImJ mice; assay type: in vivo, mouse; conditions: 129S, FIG. 3c; for time in the arena chamber with a new stranger mouse: acetaminophen 100 mg/kg i.p.
# Procedure: as §2, §3
# 5-HT neurons = conditions: literature; cited from earlier work
# 129S1/SvImJ mice [6] = experiment: marble burying test in 129S1/SvImJ mice, acute treatment; assay type: in vivo, mouse; conditions: 129S, acetaminophen 100 mg/kg i.p., FIG. 3d
# Procedure: as §2
# BTBR and C57BL/6 mice = experiment: marble burying after injections in early postnatal development; assay type: in vivo, mouse; conditions: 100 mg/kg i.p. injections from 18-21 days postnatal, 59 days, FIG. 5
# Procedure: (§4) The mice were then tested for marble burying and evaluated for neurochemical measures.
# BTBR mice [7] = experiment: 2-AG levels after injections in early postnatal development; assay type: in vivo, mouse; conditions: 100 mg/kg i.p. injections from 18-21 days postnatal, 59 days, FIG. 6
# Procedure: as §4
# 5-HT receptors = conditions: literature; cited from earlier work
smiles,measurement,setting,value
"CCCCC/C=C\C/C=C\C/C=C\C/C=C\CCCC(=O)NCCO [anandamide, N-arachidonoylethanolamine]",social interactions,mice,promote social interactions in mice
"Cc1c(C(=O)c2cccc3ccccc23)c2cccc3c2n1[C@H](CN1CCOCC1)CO3 [WIN 55,212-2]",time in the arena center,"BTBR mice [1]; WIN 55,212-2 0.1 mg/kg i.p., social approach, FIG. 2a",increased lingering in the arena center
same,time in the arena center,"BTBR mice [2]; social novelty, FIG. 2c",reduced dwelling in the arena center; also recorded: spent less time than the other groups in the arena center
same,time in the chamber with the novel stranger,BTBR mice [2]; FIG. 2c,reduced time spent in the chamber of the arena with a novel stranger; also recorded: spent less time in the box with the novel stranger than controls
same,chamber entries,BTBR mice [2],19±3
same,marbles buried,BTBR mice [3],trend toward WIN 55212 treated mice burying fewer than controls
same,time in the center chamber,"129S1/SvImJ mice [4]; WIN 55,212-2 0.1 mg/kg i.p.",increased time spent by 129S mice in the arena center; also recorded: spent more time than acetaminophen (100 mg/kg) or vehicle (saline±10% DMSO) treated mice in the center chamber
same,dwelling in the center chamber,"129S1/SvImJ mice [5]; WIN 55,212-2 0.1 mg/kg i.p.",increased dwelling in the center chamber of the arena
same,presynaptic 5-HT release in brain,5-HT neurons,inhibit presynaptic 5-HT release in brain
CC(=O)Nc1ccc(O)cc1 [acetaminophen],dwelling near confined stranger mice,"BTBR mice [1]; 100 mg/kg i.p. 50 min prior to testing, adult male BTBR, FIG. 1",increased dwelling near confined stranger mice
same,dwelling near confined stranger mice,"BTBR mice [1]; 400 mg/kg i.p. 50 min prior to testing, adult male BTBR, FIG. 1",increased dwelling near confined stranger mice
same,time in the chamber with the empty cage,"BTBR mice [1]; acetaminophen 100 mg/kg i.p., vs vehicle controls or WIN 55,212-2 0.1 mg/kg",less time in the chamber with the empty cage
same,time in the chamber with the stranger mouse,"BTBR mice [1]; acetaminophen 100 mg/kg i.p., vs vehicle controls or WIN 55,212-2 0.1 mg/kg, FIG. 2a",increased dwelling near stranger mice; also recorded: spent more time in the chamber with the stranger mouse
same,lowest dose to significantly increase time spent in the chamber with a stranger mouse above saline-injected controls,"BTBR mice [1]; adult male BTBR, dose-response 1-400 mg/kg i.p., FIG. 1",100 mg/kg
same,time in the chamber with the novel stranger,BTBR mice [2]; FIG. 2c,reduced time spent in the chamber of the arena with a novel stranger; also recorded: spent less time in the box with the novel stranger than controls
same,chamber entries,BTBR mice [2],50±7
same,time spent sniffing the stranger mouse or investigating the empty cage,129S1/SvImJ mice [4]; FIG. 3b,trend toward acetaminophen-treated 129S mice spending more time investigating strangers that did not reach significance
same,chamber entries,"129S1/SvImJ mice [4]; acetaminophen 100 mg/kg, WIN 55,212-2 0.1 mg/kg i.p.",21±5
same,time in the arena chamber with a new stranger mouse,129S1/SvImJ mice [5],spent significantly more time than controls in the arena chamber with a new stranger mouse
same,time in the arena chamber with a new stranger mouse,129S1/SvImJ mice [5]; listed as Acetaminophen,increased dwelling near new strangers relative to controls
same,marble burying,129S1/SvImJ mice [6],"greater than in vehicle-control or WIN 55,212-2 treated 129S mice"
same,marble burying,129S1/SvImJ mice [6]; listed as Acetaminophen,"increased marble burying behavior relative to control or WIN 55,212 treatments"
same,marble burying behavior,BTBR and C57BL/6 mice,induced significant marble burying behavior
same,2-AG levels,BTBR mice [7],significant affect on 2-AG levels; also recorded: diminution of 2-AG levels
same,social interactions,mice,promote social interactions in mice
same,affinity for 5-HT receptors,5-HT receptors,little to no affinity for 5-HT receptors
